13 molecules from patent US8822467B2 (Ligand Pharmaceuticals Inc., priority 2009, dated 2014) can be followed below.

For the experiment, the target named is T1, human CRTH2 (Homo sapiens, UniProt Q9Y5Y4).
T1 construct: expressed in transfected cells
T1 sequence (Q9Y5Y4 1-395): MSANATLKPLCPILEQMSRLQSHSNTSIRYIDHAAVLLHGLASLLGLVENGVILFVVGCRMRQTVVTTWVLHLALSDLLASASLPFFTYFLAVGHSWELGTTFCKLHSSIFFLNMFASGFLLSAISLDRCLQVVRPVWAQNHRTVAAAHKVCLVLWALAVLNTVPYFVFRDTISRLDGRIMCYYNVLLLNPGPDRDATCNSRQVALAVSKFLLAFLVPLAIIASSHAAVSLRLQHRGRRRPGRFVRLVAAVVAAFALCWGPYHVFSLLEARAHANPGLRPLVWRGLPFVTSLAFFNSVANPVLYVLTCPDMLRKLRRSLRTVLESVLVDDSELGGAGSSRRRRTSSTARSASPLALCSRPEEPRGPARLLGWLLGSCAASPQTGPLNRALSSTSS
Kind of experiment: [35S]GTPγS binding assay (SPA) on membranes from CHO-K1 cells stably expressing human CRTH2, stimulated with 60 nM DHK-PGD2. The class given is biochemical. As to conditions: read-out: CRTH2 hGTPγS IC50. Summed up:
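Read-out is scintillation proximity: bound [35S]GTPγS (500 pM, with 10 μM GDP) was counted 4 h after centrifuging a 2 h ambient-temperature incubation. Reactions held 4 μg human CRTH2 CHO-K1 membrane protein, 60 nM DHK-PGD2 agonist and test compounds at increasing concentrations. Buffer: 20 mM HEPES pH 7.4, 10 mM MgCl2, 300 mM NaCl, 0.2% BSA, 1% DMSO.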

Where [1] appears, read: membranes of CHO-K1 cells expressing human CRTH2, 60 nM DHK-PGD2, Table 1.

Where two headings read alike, the source gives them in different places.

One may read the IC50 as the point on the concentration scale where inhibition reaches its midpoint. As to `CN(Cc1ccc(OCC(=O)O)c(-c2cccc(C#N)c2)c1)S(=O)(=O)c1ccc(F)c(Cl)c1` [Example 62, 2-(3-cyanophenyl)-4-((3-chloro-4-fluoro-N-methylphenylsulfonamido)methyl)phenoxyacetic acid], the IC50 (potency class symbols, Table 2) was < 100 nM. As for `CN(Cc1ccc(OCC(=O)O)c(-c2cncnc2)c1)S(=O)(=O)c1ccccc1` [Example 172, 2-(pyrimidin-5-yl)-4-((N-methylphenylsulfonamido)methyl)phenoxyacetic acid], the concentration for half-maximal inhibition (IC50) (potency class symbols, Table 2) lay in the range of 1000 to 10000 nM.

For the molecule `Cc1ccc(S(=O)(=O)N(C)Cc2ccc(OCC(=O)O)c(-c3cccc(S(C)(=O)=O)c3)c2)cc1` [Example 59, 2-(3-methylsulfonylphenyl)-4-((4-methyl-N-methylphenylsulfonamido)methyl)phenoxyacetic acid], the IC50 (potency class symbols, Table 2) is < 100 nM.

Turning to `COC(=O)c1cccc(-c2cc(CN(C)S(=O)(=O)c3ccc(F)cc3)ccc2OCC(=O)O)c1` [Example 141, 2-(3-methoxycarbonylphenyl)-4-((4-fluoro-N-methylphenylsulfonamido)methyl)phenoxyacetic acid], for the setting “potency class symbols, Table 2”, the IC50 lay within 100 to 1000 nM. `CN(Cc1ccc(OCC(=O)O)c(-c2cc(F)cc(F)c2)c1)S(=O)(=O)c1ccc(Cl)c(Cl)c1` [Example 51, 2-(3,5-difluorophenyl)-4-((3,4-dichloro-N-methylphenylsulfonamido)methyl)phenoxyacetic acid]: the IC50 under setting [1] amounted to 3.4 nM and the IC50 (potency class symbols, Table 2) was < 100 nM.

Consider `CN(Cc1ccc(OCC(=O)O)c(-c2cc(F)cc(C(F)(F)F)c2)c1)S(=O)(=O)c1ccc(F)cc1` [Example 79, 2-(3-trifluoromethyl-5-fluorophenyl)-4-((4-fluoro-N-methylphenylsulfonamido)methyl)phenoxyacetic acid], for which the IC50 (potency class symbols, Table 2) was < 100 nM. As for `CN(Cc1ccc(OCC(=O)O)c(-c2cc(F)cc(C#N)c2)c1)S(=O)(=O)c1ccccc1` [Example 80, 2-(3-cyano-5-fluorophenyl)-4-((N-methylphenylsulfonamido)methyl)phenoxyacetic acid], the concentration for half-maximal inhibition (IC50) (potency class symbols, Table 2) was < 100 nM. As to `CN(Cc1cc(-c2cc(F)cc(C#N)c2)c(OCC(=O)O)cc1F)S(=O)(=O)c1cccc(Cl)c1` [Example 210, 2-(3-cyano-5-fluoro-phenyl)-4-((3-chloro-N-methylphenylsulfonamido)methyl)-5-fluorophenoxyacetic acid], under “potency class symbols, Table 2”, the IC50 was < 100 nM. Take `CN(Cc1ccc(OCC(=O)O)c(-c2cc(F)cc(C#N)c2)c1)S(=O)(=O)c1ccc(F)c(F)c1` [Example 44, 2-(3-cyano-5-fluorophenyl)-4-((3,4-difluoro-N-methylphenylsulfonamido)methyl)phenoxyacetic acid]: the IC50 under setting [1] was determined as 1.8 nM and the half-maximal inhibitory concentration (IC50) (potency class symbols, Table 2) was < 100 nM. Consider `CNS(=O)(=O)c1cccc(-c2cc(CN(C)S(=O)(=O)c3ccc(F)c(F)c3)ccc2OCC(=O)O)c1` [Example 50, 2-(3-N-methylsulfamoylphenyl)-4-((3,4-difluoro-N-methylphenylsulfonamido)methyl)phenoxyacetic acid], for which the IC50 (potency class symbols, Table 2) is < 100 nM.

Turning to `COc1cc(F)cc(-c2cc(CN(C)S(=O)(=O)c3ccc(OC)c(F)c3)ccc2OCC(=O)O)c1` [Example 48, 2-(3-fluoro-5-methoxyphenyl)-4-((3-fluoro-4-methoxy-N-methylphenylsulfonamido)methyl)phenoxyacetic acid], the IC50 under setting [1] worked out at 2.9 nM and the IC50 (potency class symbols, Table 2) was < 100 nM.

For the molecule `COc1ccc(S(=O)(=O)N(C)Cc2ccc(OCC(=O)O)c(-c3cc(F)cc(F)c3)c2)cc1F` [Example 189, 2-(3,5-difluorophenyl)-4-((3-fluoro-4-methoxy-N-methylphenylsulfonamido)methyl)phenoxyacetic acid], where the note is “potency class symbols, Table 2”, the IC50 is < 100 nM. For the molecule `CN(Cc1ccc(OCC(=O)O)c(-c2cccc(O)c2)c1)S(=O)(=O)c1ccc(F)cc1` [Example 132, 2-(3-hydroxyphenyl)-4-((4-fluoro-N-methylphenylsulfonamido)methyl)phenoxyacetic acid], under “potency class symbols, Table 2”, the IC50 lay in the range of 100 to 1000 nM.
